{"source": "patent US7410975B2", "about": "“Small molecule toll-like receptor (TLR) antagonists” (Coley Pharmaceutical Group, Inc., priority 2003, dated 2008)", "data": [{"molecular_target": "T1, human TLR9 (hTLR9) (Homo sapiens, UniProt Q9NR96)", "T1 construct": "expressed in transfected cells", "T1 sequence (Q9NR96 26-1032)": "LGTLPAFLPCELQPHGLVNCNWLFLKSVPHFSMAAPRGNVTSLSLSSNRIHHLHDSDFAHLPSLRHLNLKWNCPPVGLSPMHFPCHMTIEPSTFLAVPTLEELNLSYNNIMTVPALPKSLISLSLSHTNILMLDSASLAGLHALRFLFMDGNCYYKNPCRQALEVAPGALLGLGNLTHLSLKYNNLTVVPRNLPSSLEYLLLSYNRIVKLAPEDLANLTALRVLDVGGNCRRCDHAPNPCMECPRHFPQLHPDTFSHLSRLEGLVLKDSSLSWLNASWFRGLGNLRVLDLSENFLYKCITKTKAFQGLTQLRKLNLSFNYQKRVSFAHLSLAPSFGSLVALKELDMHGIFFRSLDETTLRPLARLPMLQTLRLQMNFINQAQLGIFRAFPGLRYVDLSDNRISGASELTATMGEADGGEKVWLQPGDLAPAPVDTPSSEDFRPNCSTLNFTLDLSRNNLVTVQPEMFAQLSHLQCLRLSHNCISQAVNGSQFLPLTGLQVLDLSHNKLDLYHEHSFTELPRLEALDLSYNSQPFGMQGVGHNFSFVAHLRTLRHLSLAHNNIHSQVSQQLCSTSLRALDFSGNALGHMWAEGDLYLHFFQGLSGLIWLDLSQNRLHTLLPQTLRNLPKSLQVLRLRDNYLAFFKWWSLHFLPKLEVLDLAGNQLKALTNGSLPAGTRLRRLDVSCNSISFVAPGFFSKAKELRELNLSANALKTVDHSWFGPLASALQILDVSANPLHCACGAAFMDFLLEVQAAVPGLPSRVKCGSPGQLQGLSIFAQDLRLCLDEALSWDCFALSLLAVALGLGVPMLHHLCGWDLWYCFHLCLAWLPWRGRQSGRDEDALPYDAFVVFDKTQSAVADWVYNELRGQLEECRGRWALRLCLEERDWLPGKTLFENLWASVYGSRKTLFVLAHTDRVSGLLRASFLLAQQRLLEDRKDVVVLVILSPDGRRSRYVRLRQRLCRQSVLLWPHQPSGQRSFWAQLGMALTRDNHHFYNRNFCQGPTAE", "test": "Antagonist screen, hTLR9-NFκB-293 cells, 6× NF-κB-luciferase reporter, with EC50 of CpG ODN 2006", "format": "cell-based", "conditions": "FIG. 1, graph", "protocol": "(§1) Candidate small molecules for initial screening were obtained from a commercially available library of 880 off-patent small molecules selected for structural diversity and proven bioavailability in humans (Prestwick Chemical Library). […] Results were measured as fold induction over baseline luciferase activity measured in the absence of ODN 2006 and compared to fold induction over baseline in the presence of the EC50 concentration of ODN 2006 alone. […] Additional screening was performed in like manner using additional small molecules selected from another library or specifically prepared for this purpose.\n(§2) The method is described in greater detail as follows. The cells for each individual cell clone (hTLR3-NFκB-293, hTLR7-NFκB-293, hTLR8-NFκB-293 and hTLR9-NFκB-293) were counted and seeded one day before the stimulation at 1.5×10^4 cells per well in 96-well cell culture plates. To become adherent the cells were incubated after seeding overnight at 37° C. in 5% CO2 humidified air.\n(§3) The screen for each compound was performed at the same time for all of the receptors TLR3, TLR7, TLR8 and TLR9. Up to fifteen test compounds, each assayed in duplicate at each of three different final concentrations (0.5 μg/ml, 5 μg/ml, and 50 μg/ml), were used for 16 h cell stimulation on a single multiwell culture plate. A 4× final concentration master plate was created to prepare the different test compounds before they were added to the cells.\n(§4) Controls were added as duplicates individually for each cell clone on the cell culture plate. Positive controls were used as follows (final concentrations): 50 μg/ml poly(I:C) for hTLR3-NFκB-293; 8 μM resiquimod (R848) for hTLR7-NFκB-293; 30 μM R848 for hTLR8-NFκB-293; and 2.5 μM CpG-ODN 2006 for hTLR9-NFκB-293. Media alone was used as negative control. After addition of controls and small molecules, the cell clones were additionally stimulated with the EC50 concentration of the appropriate receptor-specific ligand.\n(§5) The mean value of wells H2 and H5 (each with cells and EC50 concentration of the appropriate receptor-specific ligand) divided by the mean of wells H3 and H6 (each with cells alone) yielded the baseline response (i.e., fold induction of luciferase activity) to EC50 concentration of the appropriate receptor-specific ligand.\n(§6) After 16 h stimulation the supernatant was removed and the cells treated with lysis buffer and stored at −80° C. before measuring.\n(§7) For each screen result a graphical documentation was performed.\n(§8) The baseline result (measured with addition of the EC50 concentration of the receptor-specific ligand) for each cell culture plate was measured as described above. Antagonistic effects were measured by down regulation compared to the baseline. Antagonists were scored as follows: • 13: compounds for which there was clear down regulation at 0.5 μg/ml, 5 μg/ml, and 50 μg/ml; • 12: compounds for which there was clear down regulation at 5 μg/ml and 50 μg/ml; • 11: compounds for which there was clear down regulation only at 50 μg/ml; • —: compounds for which there was no clear down regulation even at 50 μg/ml. Agonists", "values": [{"smiles": "c1ccc2c(c1)[nH]c1cnccc12", "note": "[compound 470, norharman]", "inhibition of TLR9 signaling in response to CpG ODN 2006 (FIG. 1)": "concentration-dependent inhibition"}]}, {"molecular_target": "T1, human TLR9 (hTLR9)", "test": "Antagonist screen, hTLR9-NFκB-293 cells, 6× NF-κB-luciferase reporter, with EC50 of CpG ODN 2006", "format": "cell-based", "conditions": "compound at 0.5, 5, 50 μg/ml; EC50 concentration of CpG ODN 2006; 16 h; NF-κB-luciferase", "protocol": "as §1, §2, §3, §4, §5, §6, §7, §8", "values": [{"smiles": "CC1NCCc2c1[nH]c1ccccc21.Cl", "note": "(racemic) [compound 619, Eleagnine hydrochloride (R,S)]", "hTLR9 (inhibitory effect, antagonist score)": "12 (compounds for which there was clear down regulation at 5 μg/ml and 50 μg/ml)"}, {"smiles": "O=C1c2c(O)cccc2Cc2cccc(O)c21", "note": "[compound 43, Anthralin]", "hTLR9 (inhibitory effect, antagonist score)": "13 (compounds for which there was clear down regulation at 0.5 μg/ml, 5 μg/ml, and 50 μg/ml)"}, {"smiles": "CN(C)CCCN1c2ccccc2Sc2ccc(C(F)(F)F)cc21.Cl", "note": "[compound 53, Triflupromazinehydrochloride]", "hTLR9 (inhibitory effect, antagonist score)": "13 (compounds for which there was clear down regulation at 0.5 μg/ml, 5 μg/ml, and 50 μg/ml)"}, {"smiles": "CN(C)CCCN1c2ccccc2Sc2ccc(Cl)cc21.Cl", "note": "[compound 64, Chlorpromazinehydrochloride]", "hTLR9 (inhibitory effect, antagonist score)": "12 (compounds for which there was clear down regulation at 5 μg/ml and 50 μg/ml)"}, {"smiles": "CN(C)CCC=C1c2ccccc2CCc2ccccc21.Cl", "note": "[compound 74, Amitryptilinehydrochloride]", "hTLR9 (inhibitory effect, antagonist score)": "12 (compounds for which there was clear down regulation at 5 μg/ml and 50 μg/ml)"}, {"smiles": "OC(c1ccccc1)(c1ccccc1)C1CCNCC1", "note": "[compound 93, Azacyclonol]", "hTLR9 (inhibitory effect, antagonist score)": "11 (compounds for which there was clear down regulation only at 50 μg/ml)"}, {"smiles": "CN1Cc2c(N)cccc2C(c2ccccc2)C1.O=C(O)/C=C\\C(=O)O", "note": "(stereo not shown) [compound 108, Nomifensine maleate]", "hTLR9 (inhibitory effect, antagonist score)": "11 (compounds for which there was clear down regulation only at 50 μg/ml)"}, {"smiles": "C[C@]12N[C@H](Cc3ccccc31)c1ccccc12.O=C(O)/C=C\\C(=O)O", "note": "[compound 109, Dizocilpine maleate]", "hTLR9 (inhibitory effect, antagonist score)": "13 (compounds for which there was clear down regulation at 0.5 μg/ml, 5 μg/ml, and 50 μg/ml)"}, {"smiles": "OCCN1CCN(CCCN2c3ccccc3Sc3ccc(Cl)cc32)CC1", "note": "[compound 125, Perphenazine]", "hTLR9 (inhibitory effect, antagonist score)": "11 (compounds for which there was clear down regulation only at 50 μg/ml)"}, {"smiles": "CN1CCN(CCCN2c3ccccc3Sc3ccc(S(=O)(=O)N(C)C)cc32)CC1.CS(=O)(=O)O.CS(=O)(=O)O", "note": "[compound 149, Thioproperasinedimesylate]", "hTLR9 (inhibitory effect, antagonist score)": "13 (compounds for which there was clear down regulation at 0.5 μg/ml, 5 μg/ml, and 50 μg/ml)"}, {"smiles": "Clc1ccccc1C(c1ccccc1)(c1ccccc1)n1ccnc1", "note": "[compound 267, Clotrimazole]", "hTLR9 (inhibitory effect, antagonist score)": "— (compounds for which there was no clear down regulation even at 50 μg/ml)"}, {"smiles": "CC(NCCC(c1ccccc1)c1ccccc1)c1ccccc1.Cl", "note": "(stereo not shown) [compound 270, Fendiline hydrochloride]", "hTLR9 (inhibitory effect, antagonist score)": "— (compounds for which there was no clear down regulation even at 50 μg/ml)"}, {"smiles": "CN1CCC(=C2c3ccccc3Sc3ccccc32)CC1.O=C(O)/C=C\\C(=O)O", "note": "[compound 294, Pimethixene maleate]", "hTLR9 (inhibitory effect, antagonist score)": "11 (compounds for which there was clear down regulation only at 50 μg/ml)"}, {"smiles": "O=c1[nH]c2ccccc2n1C1CCN(CCCC(c2ccc(F)cc2)c2ccc(F)cc2)CC1", "note": "[compound 308, Pimozide]", "hTLR9 (inhibitory effect, antagonist score)": "12 (compounds for which there was clear down regulation at 5 μg/ml and 50 μg/ml)"}, {"smiles": "Cl.Cl.OCCN1CCN(CC/C=C2/c3ccccc3Sc3ccc(C(F)(F)F)cc32)CC1", "note": "[compound 340, Flupentixoldihydrochloride cis-(Z)]", "hTLR9 (inhibitory effect, antagonist score)": "11 (compounds for which there was clear down regulation only at 50 μg/ml)"}, {"smiles": "CNCCCN1c2ccccc2CCc2ccccc21.Cl", "note": "[compound 343, Desipraminehydrochloride]", "hTLR9 (inhibitory effect, antagonist score)": "12 (compounds for which there was clear down regulation at 5 μg/ml and 50 μg/ml)"}, {"smiles": "CN(C)CC/C=C1/c2ccccc2Sc2ccc(Cl)cc21.Cl", "note": "[compound 348, Chlorprothixenehydrochloride]", "hTLR9 (inhibitory effect, antagonist score)": "12 (compounds for which there was clear down regulation at 5 μg/ml and 50 μg/ml)"}, {"smiles": "Cc1cccc(C)c1NC(=O)CN1CCN(CCCC(c2ccc(F)cc2)c2ccc(F)cc2)CC1", "note": "[compound 381, Lidoflazine]", "hTLR9 (inhibitory effect, antagonist score)": "11 (compounds for which there was clear down regulation only at 50 μg/ml)"}, {"smiles": "Cl.Cl.Fc1ccc(C(OCCN2CCN(CCCc3ccccc3)CC2)c2ccc(F)cc2)cc1", "note": "[compound 386, GBR 12909hydrochloride]", "hTLR9 (inhibitory effect, antagonist score)": "— (compounds for which there was no clear down regulation even at 50 μg/ml)"}, {"smiles": "Nc1cccc2c1C(=O)c1cccc(N)c1C2=O", "note": "[compound 413, Anthraquinone,1,5-diamino]", "hTLR9 (inhibitory effect, antagonist score)": "13 (compounds for which there was clear down regulation at 0.5 μg/ml, 5 μg/ml, and 50 μg/ml)"}, {"smiles": "CN1CCC2C(C1)c1ccccc1N2Cc1ccccc1", "note": "(stereo not shown) [compound 455, Mebhydroline 1,5 naphtalenedisulfonate]", "hTLR9 (inhibitory effect, antagonist score)": "12 (compounds for which there was clear down regulation at 5 μg/ml and 50 μg/ml)"}, {"smiles": "Cc1cccc(CN2CCN(C(c3ccccc3)c3ccc(Cl)cc3)CC2)c1.Cl.Cl", "note": "(stereo not shown) [compound 457, Meclozinedihydrochioride]", "hTLR9 (inhibitory effect, antagonist score)": "11 (compounds for which there was clear down regulation only at 50 μg/ml)"}, {"smiles": "c1ccc2c(c1)[nH]c1cnccc12", "note": "[compound 470, norharman]", "hTLR9 (inhibitory effect, antagonist score)": "11 (compounds for which there was clear down regulation only at 50 μg/ml)"}, {"smiles": "CN(C)CC/C=C1/c2ccccc2CSc2ccccc21.Cl", "note": "[compound 488, Dosulepin hydrochloride]", "hTLR9 (inhibitory effect, antagonist score)": "12 (compounds for which there was clear down regulation at 5 μg/ml and 50 μg/ml)"}, {"smiles": "CN1CCN(C(c2ccccc2)c2ccccc2)CC1.Cl", "note": "[compound 510, Cyclizine hydrochloride]", "hTLR9 (inhibitory effect, antagonist score)": "11 (compounds for which there was clear down regulation only at 50 μg/ml)"}, {"smiles": "CN1CCCCC1CCN1c2ccccc2Sc2ccc([S+](C)[O-])cc21.O=S(=O)(O)c1ccccc1", "note": "(stereo not shown) [compound 529, Mesoridazine besylate]", "hTLR9 (inhibitory effect, antagonist score)": "11 (compounds for which there was clear down regulation only at 50 μg/ml)"}, {"smiles": "CCOC(=O)Oc1c(OC)cc(C(=O)O[C@@H]2C[C@@H]3CN4CCc5c([nH]c6cc(OC)ccc56)[C@H]4C[C@@H]3[C@H](C(=O)OC)[C@H]2OC)cc1OC", "note": "[compound 564, Syrosingopine]", "hTLR9 (inhibitory effect, antagonist score)": "13 (compounds for which there was clear down regulation at 0.5 μg/ml, 5 μg/ml, and 50 μg/ml)"}]}]}
